{
  "source": "PubChem BioAssay (NCI)",
  "assay_in_all_cases": "NCI tumour cell line growth inhibition, 48 h",
  "key": {"DU-145 prostate": {"test_system": "DU-145 prostate"}, "MALME-3M melanoma": {"test_system": "MALME-3M melanoma"}, "SF-539 CNS": {"test_system": "SF-539 CNS"}, "HT29 colon": {"test_system": "HT29 colon"}, "MOLT-4 leukemia": {"test_system": "MOLT-4 leukemia"}, "SK-MEL-5 melanoma": {"test_system": "SK-MEL-5 melanoma"}, "SF-268 CNS": {"test_system": "SF-268 CNS"}, "IGROV1 ovarian": {"test_system": "IGROV1 ovarian"}, "HCC-2998 colon": {"test_system": "HCC-2998 colon"}, "NCI/ADR-RES ovarian": {"test_system": "NCI/ADR-RES ovarian"}, "MDA-N": {"test_system": "MDA-N"}, "M14 melanoma": {"test_system": "M14 melanoma"}},
  "note": "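96-well plates; 48 h exposure; 5 concentrations. Endpoints by linear interpolation between flanking doses. Not reached: highest tested concentration assigned. The concentration for 50% growth inhibition is given as GI50. TGI is the concentration that stops growth completely.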",
  "data": [
    {"compound": "N#CC(C#N)=CN1CCN(C(=O)c2ccco2)C1=S", "values": [
      {"measurement": "GI50", "setting": "DU-145 prostate", "result": 5.46, "unit": "µM"},
      {"measurement": "TGI", "setting": "DU-145 prostate", "result": "> 100", "unit": "µM"},
      {"measurement": "GI50", "setting": "MALME-3M melanoma", "result": 47.8, "unit": "µM"},
      {"measurement": "TGI", "setting": "MALME-3M melanoma", "result": "> 100", "unit": "µM"},
      {"measurement": "GI50", "setting": "SF-539 CNS", "result": 2480, "unit": "nM"},
      {"measurement": "TGI", "setting": "SF-539 CNS", "result": 7.55, "unit": "µM"},
      {"measurement": "GI50", "setting": "HT29 colon", "result": 27.7, "unit": "µM"},
      {"measurement": "TGI", "setting": "HT29 colon", "result": "> 100", "unit": "µM"},
      {"measurement": "GI50", "setting": "MOLT-4 leukemia", "result": 5.22, "unit": "µM"},
      {"measurement": "TGI", "setting": "MOLT-4 leukemia", "result": "> 100", "unit": "µM"},
      {"measurement": "GI50", "setting": "SK-MEL-5 melanoma", "result": 2870, "unit": "nM"},
      {"measurement": "TGI", "setting": "SK-MEL-5 melanoma", "result": 8.07, "unit": "µM"},
      {"measurement": "GI50", "setting": "SF-268 CNS", "result": 31.4, "unit": "µM"},
      {"measurement": "TGI", "setting": "SF-268 CNS", "result": 89.4, "unit": "µM"},
      {"measurement": "GI50", "setting": "IGROV1 ovarian", "result": 6.61, "unit": "µM"},
      {"measurement": "TGI", "setting": "IGROV1 ovarian", "result": 38.9, "unit": "µM"}
    ]},
    {"compound": "O=C(O)C(=C\\c1ccc2c(c1)OCO2)/C(=C/c1ccc2c(c1)OCO2)C(=O)O", "values": [
      {"measurement": "TGI", "setting": "HCC-2998 colon", "result": "> 100", "unit": "µM"},
      {"measurement": "TGI", "setting": "DU-145 prostate", "result": "> 100", "unit": "µM"},
      {"measurement": "TGI", "setting": "MALME-3M melanoma", "result": "> 100", "unit": "µM"},
      {"measurement": "TGI", "setting": "NCI/ADR-RES ovarian", "result": "> 100", "unit": "µM"},
      {"measurement": "TGI", "setting": "MDA-N", "result": "> 100", "unit": "µM"},
      {"measurement": "TGI", "setting": "HT29 colon", "result": "> 100", "unit": "µM"},
      {"measurement": "TGI", "setting": "MOLT-4 leukemia", "result": "> 100", "unit": "µM"},
      {"measurement": "TGI", "setting": "SK-MEL-5 melanoma", "result": "> 100", "unit": "µM"},
      {"measurement": "TGI", "setting": "M14 melanoma", "result": "> 100", "unit": "µM"},
      {"measurement": "TGI", "setting": "IGROV1 ovarian", "result": "> 100", "unit": "µM"}
    ]},
    {"compound": "Cc1c(C#N)c2nnn(C)c(=O)n2c1-c1ccccc1", "values": [
      {"measurement": "TGI", "setting": "HCC-2998 colon", "result": "> 100", "unit": "µM"},
      {"measurement": "TGI", "setting": "NCI/ADR-RES ovarian", "result": "> 100", "unit": "µM"},
      {"measurement": "TGI", "setting": "SF-539 CNS", "result": "> 100", "unit": "µM"},
      {"measurement": "TGI", "setting": "MDA-N", "result": "> 100", "unit": "µM"},
      {"measurement": "TGI", "setting": "M14 melanoma", "result": "> 100", "unit": "µM"},
      {"measurement": "TGI", "setting": "SF-268 CNS", "result": "> 100", "unit": "µM"}
    ]}
  ]
}
